Like-named read-outs stand apart in the source and are kept apart here.
Key:
Type in all cases: cell-based
[1] = biological target: proteins of HEK293T cells transiently overexpressing caspase-6 (Homo sapiens, UniProt P07237); conditions: protein P4HB (P07237)
[2] = biological target: proteins of HEK293T cells transiently overexpressing caspase-6 (Homo sapiens, UniProt P08133); conditions: exp_ref Probe; protein ANXA6 (P08133); analysis C6
[3] = biological target: proteins of HEK293T cells transiently overexpressing caspase-6 (Homo sapiens, UniProt Q12906); conditions: exp_ref Probe; protein ILF3 (Q12906); analysis C6
proteins of HEK293T cells transiently overexpressing caspase-6 (Homo sapiens, UniProt Q12906), sequence (Q12906 whole entry): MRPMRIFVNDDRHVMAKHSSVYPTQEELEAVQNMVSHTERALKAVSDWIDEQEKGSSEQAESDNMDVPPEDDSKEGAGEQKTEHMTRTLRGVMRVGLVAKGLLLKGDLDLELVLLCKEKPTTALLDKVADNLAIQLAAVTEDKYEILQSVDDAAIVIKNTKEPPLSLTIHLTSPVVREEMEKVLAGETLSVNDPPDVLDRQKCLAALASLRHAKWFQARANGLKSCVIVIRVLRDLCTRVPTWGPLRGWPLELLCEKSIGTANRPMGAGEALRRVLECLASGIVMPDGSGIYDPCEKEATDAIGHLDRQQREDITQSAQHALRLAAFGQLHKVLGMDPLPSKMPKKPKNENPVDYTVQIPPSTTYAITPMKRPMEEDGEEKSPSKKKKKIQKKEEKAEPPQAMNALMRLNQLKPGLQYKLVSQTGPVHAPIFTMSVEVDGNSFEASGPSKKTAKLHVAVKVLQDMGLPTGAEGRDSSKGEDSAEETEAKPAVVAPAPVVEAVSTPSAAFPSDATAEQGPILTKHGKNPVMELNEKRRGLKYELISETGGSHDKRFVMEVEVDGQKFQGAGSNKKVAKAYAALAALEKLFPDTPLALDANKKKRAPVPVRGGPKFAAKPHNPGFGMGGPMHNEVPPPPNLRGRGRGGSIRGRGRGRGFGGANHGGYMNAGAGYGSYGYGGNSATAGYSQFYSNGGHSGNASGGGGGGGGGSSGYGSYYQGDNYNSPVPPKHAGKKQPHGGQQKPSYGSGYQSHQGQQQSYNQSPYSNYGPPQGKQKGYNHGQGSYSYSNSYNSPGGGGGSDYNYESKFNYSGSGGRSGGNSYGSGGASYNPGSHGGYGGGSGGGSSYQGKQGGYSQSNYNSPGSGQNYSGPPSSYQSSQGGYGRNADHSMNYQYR

[4] = biological target: T1, proteins of HEK293T cells transiently overexpressing caspase-6 (Homo sapiens, UniProt Q92945); conditions: protein KHSRP (Q92945)
T1 sequence (Q92945 1-711): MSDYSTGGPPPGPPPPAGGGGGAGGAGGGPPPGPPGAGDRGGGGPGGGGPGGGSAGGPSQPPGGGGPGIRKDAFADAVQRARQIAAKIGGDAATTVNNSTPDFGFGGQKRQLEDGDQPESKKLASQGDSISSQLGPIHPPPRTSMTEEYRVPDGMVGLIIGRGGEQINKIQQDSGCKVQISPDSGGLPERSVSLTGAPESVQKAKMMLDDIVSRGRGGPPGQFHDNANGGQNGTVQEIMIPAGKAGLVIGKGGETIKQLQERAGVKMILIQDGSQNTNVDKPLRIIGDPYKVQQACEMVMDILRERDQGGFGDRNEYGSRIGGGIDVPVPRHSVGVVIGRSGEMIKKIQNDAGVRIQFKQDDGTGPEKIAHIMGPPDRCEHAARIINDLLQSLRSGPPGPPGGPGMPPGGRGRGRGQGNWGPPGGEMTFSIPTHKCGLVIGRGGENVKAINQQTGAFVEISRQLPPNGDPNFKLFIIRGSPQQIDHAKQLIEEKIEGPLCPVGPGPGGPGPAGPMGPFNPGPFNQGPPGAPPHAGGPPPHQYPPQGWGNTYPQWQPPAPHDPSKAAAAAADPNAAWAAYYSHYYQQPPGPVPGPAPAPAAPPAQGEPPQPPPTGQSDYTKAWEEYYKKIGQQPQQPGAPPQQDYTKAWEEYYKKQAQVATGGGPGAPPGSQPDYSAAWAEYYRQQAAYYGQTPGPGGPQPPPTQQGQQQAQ

[5] = biological target: T2, proteins of HEK293T cells transiently overexpressing caspase-6 (Homo sapiens, UniProt P30519); conditions: protein HMOX2 (P30519)
T2 sequence (P30519 1-316): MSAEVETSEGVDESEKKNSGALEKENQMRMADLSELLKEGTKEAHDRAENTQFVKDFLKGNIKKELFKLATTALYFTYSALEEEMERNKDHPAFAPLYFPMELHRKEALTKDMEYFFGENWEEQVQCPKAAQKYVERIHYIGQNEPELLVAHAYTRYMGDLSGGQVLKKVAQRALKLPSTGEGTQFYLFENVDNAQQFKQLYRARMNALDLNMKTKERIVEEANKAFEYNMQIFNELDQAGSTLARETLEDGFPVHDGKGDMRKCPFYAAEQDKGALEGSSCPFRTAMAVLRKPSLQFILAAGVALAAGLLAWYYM

[6] = biological target: proteins of HEK293T cells transiently overexpressing caspase-6 (Homo sapiens, UniProt P11021); conditions: protein HSPA5 (P11021)
proteins of HEK293T cells transiently overexpressing caspase-6 (Homo sapiens, UniProt P11021), sequence (P11021 19-654): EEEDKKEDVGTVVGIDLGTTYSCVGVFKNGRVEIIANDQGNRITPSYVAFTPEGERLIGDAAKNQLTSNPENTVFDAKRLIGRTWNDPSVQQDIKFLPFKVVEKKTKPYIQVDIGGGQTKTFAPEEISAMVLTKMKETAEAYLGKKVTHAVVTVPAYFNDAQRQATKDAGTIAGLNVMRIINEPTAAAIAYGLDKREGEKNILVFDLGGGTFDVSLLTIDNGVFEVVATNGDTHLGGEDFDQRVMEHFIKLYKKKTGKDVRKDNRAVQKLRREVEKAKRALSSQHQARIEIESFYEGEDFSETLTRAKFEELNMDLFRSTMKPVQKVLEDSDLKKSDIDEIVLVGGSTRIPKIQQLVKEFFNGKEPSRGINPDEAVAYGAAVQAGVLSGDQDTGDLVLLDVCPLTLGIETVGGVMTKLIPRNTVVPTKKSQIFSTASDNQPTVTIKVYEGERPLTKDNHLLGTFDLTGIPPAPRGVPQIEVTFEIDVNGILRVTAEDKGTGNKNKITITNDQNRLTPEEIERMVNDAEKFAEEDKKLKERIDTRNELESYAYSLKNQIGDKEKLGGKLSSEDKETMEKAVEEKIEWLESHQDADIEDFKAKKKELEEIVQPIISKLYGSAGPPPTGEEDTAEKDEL

[7] = biological target: proteins of HEK293T cells transiently overexpressing caspase-6 (Homo sapiens, UniProt Q96AE4); conditions: Probe; protein FUBP1 Q96AE4
[8] = biological target: proteins of HEK293T cells transiently overexpressing caspase-6 (Homo sapiens, UniProt P07437); conditions: protein TUBB (P07437)
proteins of HEK293T cells transiently overexpressing caspase-6 (Homo sapiens, UniProt P07437), sequence (P07437 whole entry): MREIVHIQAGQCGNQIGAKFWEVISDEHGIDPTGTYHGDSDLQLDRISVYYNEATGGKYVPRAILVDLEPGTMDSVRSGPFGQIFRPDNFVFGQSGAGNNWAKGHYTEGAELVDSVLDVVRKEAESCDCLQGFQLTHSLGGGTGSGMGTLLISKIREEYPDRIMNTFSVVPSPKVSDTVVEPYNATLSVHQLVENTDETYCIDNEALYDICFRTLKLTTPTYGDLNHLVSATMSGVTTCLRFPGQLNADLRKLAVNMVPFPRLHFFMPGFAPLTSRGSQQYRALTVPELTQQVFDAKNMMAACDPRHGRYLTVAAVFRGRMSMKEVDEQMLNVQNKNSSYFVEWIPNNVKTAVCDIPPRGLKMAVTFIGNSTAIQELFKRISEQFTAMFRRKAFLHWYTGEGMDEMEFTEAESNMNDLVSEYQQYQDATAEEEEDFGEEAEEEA

[9] = biological target: proteins of HEK293T cells transiently overexpressing caspase-6 (Homo sapiens, UniProt Q02543); conditions: exp_ref Probe; protein RPL18A (Q02543); analysis C6
[10] = biological target: proteins of HEK293T cells transiently overexpressing caspase-6 (Homo sapiens, UniProt Q08211); conditions: exp_ref Probe; protein DHX9 (Q08211); analysis C6
proteins of HEK293T cells transiently overexpressing caspase-6 (Homo sapiens, UniProt Q08211), sequence (Q08211 whole entry): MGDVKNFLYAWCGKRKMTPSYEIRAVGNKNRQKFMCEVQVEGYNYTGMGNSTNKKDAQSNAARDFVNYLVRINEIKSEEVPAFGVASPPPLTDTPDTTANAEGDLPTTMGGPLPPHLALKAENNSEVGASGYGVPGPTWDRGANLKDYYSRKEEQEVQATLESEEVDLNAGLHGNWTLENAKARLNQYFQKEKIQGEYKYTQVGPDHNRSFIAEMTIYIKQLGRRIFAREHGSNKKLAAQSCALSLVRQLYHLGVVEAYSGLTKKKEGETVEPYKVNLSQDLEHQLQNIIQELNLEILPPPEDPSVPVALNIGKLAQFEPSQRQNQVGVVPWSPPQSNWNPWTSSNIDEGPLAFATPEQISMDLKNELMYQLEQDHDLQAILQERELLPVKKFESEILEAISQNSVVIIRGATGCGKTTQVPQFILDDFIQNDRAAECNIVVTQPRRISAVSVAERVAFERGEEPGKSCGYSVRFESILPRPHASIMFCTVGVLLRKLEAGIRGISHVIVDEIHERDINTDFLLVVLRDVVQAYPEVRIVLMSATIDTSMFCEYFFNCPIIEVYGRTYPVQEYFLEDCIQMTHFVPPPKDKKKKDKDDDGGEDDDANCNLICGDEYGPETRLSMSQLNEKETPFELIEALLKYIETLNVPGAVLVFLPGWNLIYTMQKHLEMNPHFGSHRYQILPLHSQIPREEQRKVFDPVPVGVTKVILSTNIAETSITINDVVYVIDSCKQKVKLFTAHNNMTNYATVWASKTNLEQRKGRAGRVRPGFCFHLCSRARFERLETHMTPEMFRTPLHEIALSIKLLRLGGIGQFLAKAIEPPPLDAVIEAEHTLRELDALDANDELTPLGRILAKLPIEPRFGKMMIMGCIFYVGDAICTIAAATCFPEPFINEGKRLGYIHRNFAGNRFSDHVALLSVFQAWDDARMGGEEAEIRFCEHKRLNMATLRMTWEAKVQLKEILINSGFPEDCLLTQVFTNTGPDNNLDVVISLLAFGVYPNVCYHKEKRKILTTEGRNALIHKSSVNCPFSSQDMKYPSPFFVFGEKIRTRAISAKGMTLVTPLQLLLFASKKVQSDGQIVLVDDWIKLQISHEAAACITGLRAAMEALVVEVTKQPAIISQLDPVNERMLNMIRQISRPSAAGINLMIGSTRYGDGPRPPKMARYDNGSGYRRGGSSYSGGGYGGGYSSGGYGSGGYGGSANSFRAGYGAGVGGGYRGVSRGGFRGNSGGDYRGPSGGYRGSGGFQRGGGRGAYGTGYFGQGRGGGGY

[11] = biological target: proteins of HEK293T cells transiently overexpressing caspase-6 (Homo sapiens, UniProt O43390); conditions: exp_ref Probe; protein HNRNPR (O43390); analysis C6
proteins of HEK293T cells transiently overexpressing caspase-6 (Homo sapiens, UniProt O43390), sequence (O43390 whole entry): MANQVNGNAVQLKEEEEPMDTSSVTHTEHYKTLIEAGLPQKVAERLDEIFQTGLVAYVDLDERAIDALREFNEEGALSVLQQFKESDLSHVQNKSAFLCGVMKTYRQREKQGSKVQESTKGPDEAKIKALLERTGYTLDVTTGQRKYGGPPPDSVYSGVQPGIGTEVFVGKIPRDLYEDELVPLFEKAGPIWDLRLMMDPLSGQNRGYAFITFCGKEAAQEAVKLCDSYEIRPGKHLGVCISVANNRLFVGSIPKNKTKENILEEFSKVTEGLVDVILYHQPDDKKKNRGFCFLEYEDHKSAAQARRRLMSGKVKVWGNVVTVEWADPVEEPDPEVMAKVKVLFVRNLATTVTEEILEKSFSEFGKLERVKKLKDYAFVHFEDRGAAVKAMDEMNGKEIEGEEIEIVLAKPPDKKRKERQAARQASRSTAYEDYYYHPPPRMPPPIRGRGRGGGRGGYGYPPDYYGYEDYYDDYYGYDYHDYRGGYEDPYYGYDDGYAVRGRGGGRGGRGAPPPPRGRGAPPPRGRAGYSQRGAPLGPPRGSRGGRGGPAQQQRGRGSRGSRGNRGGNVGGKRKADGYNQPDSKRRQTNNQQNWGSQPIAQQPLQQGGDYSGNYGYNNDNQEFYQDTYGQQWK

[12] = biological target: proteins of HEK293T cells transiently overexpressing caspase-6 (Homo sapiens, UniProt P61247); conditions: protein RPS3A (P61247)
[13] = biological target: proteins of HEK293T cells transiently overexpressing caspase-6 (Homo sapiens, UniProt P52292); conditions: exp_ref Probe; protein KPNA2 (P52292); analysis C6
[14] = biological target: proteins of HEK293T cells transiently overexpressing caspase-6 (Homo sapiens, UniProt O43143); conditions: exp_ref Probe; protein DHX15 (O43143); analysis C6

proteins of HEK293T cells transiently overexpressing caspase-6 (Homo sapiens, UniProt P07237), sequence (P07237 18-508): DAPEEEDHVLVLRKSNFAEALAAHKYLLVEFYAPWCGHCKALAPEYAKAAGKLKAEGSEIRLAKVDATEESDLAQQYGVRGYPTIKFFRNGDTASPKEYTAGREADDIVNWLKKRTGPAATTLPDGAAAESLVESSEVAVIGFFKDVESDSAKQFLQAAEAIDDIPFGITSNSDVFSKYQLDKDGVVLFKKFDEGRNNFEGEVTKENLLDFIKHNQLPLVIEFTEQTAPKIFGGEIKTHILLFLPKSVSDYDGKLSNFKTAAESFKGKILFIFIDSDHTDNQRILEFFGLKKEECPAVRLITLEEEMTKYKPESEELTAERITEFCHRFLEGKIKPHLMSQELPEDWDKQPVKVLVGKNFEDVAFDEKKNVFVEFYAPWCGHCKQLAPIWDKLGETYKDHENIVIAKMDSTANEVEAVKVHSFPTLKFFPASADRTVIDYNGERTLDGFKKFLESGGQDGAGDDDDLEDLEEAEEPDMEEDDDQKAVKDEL
proteins of HEK293T cells transiently overexpressing caspase-6 (Homo sapiens, UniProt P08133), sequence (P08133 whole entry): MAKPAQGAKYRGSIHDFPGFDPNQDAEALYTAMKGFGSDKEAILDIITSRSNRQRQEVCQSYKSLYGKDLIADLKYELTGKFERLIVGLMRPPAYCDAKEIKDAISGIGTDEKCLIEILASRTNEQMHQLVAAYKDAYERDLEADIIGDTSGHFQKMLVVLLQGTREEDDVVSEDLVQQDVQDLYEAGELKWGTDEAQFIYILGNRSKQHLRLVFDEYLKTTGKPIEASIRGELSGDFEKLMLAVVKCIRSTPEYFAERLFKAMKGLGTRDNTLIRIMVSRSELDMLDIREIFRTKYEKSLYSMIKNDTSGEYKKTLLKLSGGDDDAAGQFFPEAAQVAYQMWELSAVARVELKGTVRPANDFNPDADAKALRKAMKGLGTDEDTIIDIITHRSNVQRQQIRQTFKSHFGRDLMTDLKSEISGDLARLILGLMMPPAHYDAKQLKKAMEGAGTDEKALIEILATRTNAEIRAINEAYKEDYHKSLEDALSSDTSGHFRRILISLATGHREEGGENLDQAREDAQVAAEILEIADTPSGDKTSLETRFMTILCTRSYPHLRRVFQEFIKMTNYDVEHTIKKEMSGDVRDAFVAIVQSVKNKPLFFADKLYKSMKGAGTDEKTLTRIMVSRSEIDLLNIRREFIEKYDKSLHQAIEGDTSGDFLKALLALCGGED

Molecule `C#CCOc1ccc([C@@H]2C[C@@H](C(=O)Nc3ccc(OC(F)(F)F)cc3)CN(S(=O)(=O)C=C)C2)cc1` (relative stereo) [13-t] has an enrich.exp.med.lin [1] of 4.024, an enrich.exp.med.log2 [1] of 2.009 and an enrich.exp.med ([1]; exp_ref Probe, analysis C6) of 2.009. The enrich.exp.med [2] was 0.01987, the enrich.exp.med [3] was 0.1427 and the enrich.exp.med ([4]; exp_ref Probe, analysis C6) was 0.3732. The enrich.exp.med.lin [4] was 1.295, the enrich.exp.med.log2 [4] was 0.3732 and the enrich.exp.med.lin [5] was 4.772. For the same molecule, the enrich.exp.med.log2 [5] was 2.255, the enrich.exp.med.lin ([5]; Expt Probe, analysis C6) was 4.772 and the enrich.exp.med.log2 ([5]; Expt Probe, analysis C6) was 2.255. The enrich.exp.med ([5]; exp_ref Probe, analysis C6) was 2.255, the enrich.exp.med ([6]; exp_ref Probe, analysis C6) was 0.9475 and the enrich.exp.med.lin [6] was 1.929. The enrich.exp.med.log2 [6] was 0.9475, the enrich.exp.med [7] was -1.073 and the enrich.exp.med ([8]; exp_ref Probe, analysis C6) was 1.184. For the same molecule, the enrich.exp.med.lin [8] was 2.273, the enrich.exp.med.log2 [8] was 1.184 and the enrich.exp.med [9] was -0.1551. It also gave an enrich.exp.med [10] of 0.006951, an enrich.exp.med [11] of 0.1675 and an enrich.exp.med ([12]; exp_ref Probe, analysis C6) of 1.085. It also gave an enrich.exp.med.lin [12] of 2.121, an enrich.exp.med.log2 [12] of 1.085 and an enrich.exp.med [13] of 0.5159. The enrich.exp.med [14] was 1.187.
